Results reported in US9422311B2, “Compounds for the treatment of hepatitis C” (priority 2012, dated 2016).
Where two headings read alike, the source gives them in different places.

System: HCV pseudoparticles, genotype 1a (H77C) E1 and E2 envelope
Experiment: HCV pseudoparticle infection assay (luciferase, Huh7 cells)
Format: cell-based, hepatitis C virus (HCV) genotype 1a
Conditions: Hepatitis C virus, Huh-7, 48 h, read-out: EC50 (nM) 1a (H77C), HCV pseudoparticles genotype 1a (H77C), Huh7 cells, luciferase 2 days after infection

| SMILES | EC50 (class symbol) [nM] | EC50 (numeric value) [nM] |
| --- | --- | --- |
| C=C1COc2ccc(cc2)CNc2nc(nc(OCC(F)(F)F)n2)Nc2ccc(cc2)C(=O)NCC(C)(C)CN(C(=O)C(=O)OCC)C1 [Example 1001] | 0.1 to 100 | 0.629 |
| C=C1COc2ccc(cc2)CNc2nc(nc(OCC(F)(F)F)n2)Nc2ccc(cc2)C(=O)NCC(C)(C)CN(C(=O)C(=O)O)C1 [Example 1002] | 0.1 to 100 | 5.73 |
| C=C1COc2ccc(cc2)CNc2nc(nc(OCC(F)(F)F)n2)Nc2ccc(cc2)C(=O)NCC(C)(C)CN(C(=O)C(=O)NCC2CC2)C1 [Example 1003] | 0.1 to 100 | – |
| C=C1COc2ccc(cc2)CNc2nc(nc(OCC(F)(F)F)n2)Nc2ccc(cc2)C(=O)NCC(C)(C)CN(C(=O)C(=O)Nc2ccc(F)cc2)C1 [Example 1004] | 0.1 to 100 | – |
| CC1(C)CNC(=O)c2ccc(nc2)Nc2cc(nc(OCC(F)(F)F)n2)NCc2ccc(cc2)OCCCN(C(=O)C(=O)Nc2ccc(Cl)c(F)c2)C1 [Example 2003] | 0.1 to 100 | 0.105 |
| CC1(C)CNC(=O)c2ccc(nc2)Nc2cc(nc(OCC(F)(F)F)n2)NCc2ccc(cc2)OCCCN(C(=O)C(=O)Nc2ccc(C#N)cc2)C1 [Example 2004] | 0.1 to 100 | – |
| CN(C)C(=O)C(=O)N1CCCOc2ccc(cc2Cl)CNc2nc(nc(OCC(F)(F)F)n2)Nc2ccc(cc2)C(=O)NCC(C)(C)C1 [Example 3001] | 0.1 to 100 | – |
| CC1(C)CNC(=O)c2ccc(cc2)Nc2nc(nc(OCC(F)(F)F)n2)NCc2ccc(c(Cl)c2)OCCCN(C(=O)C(N)=O)C1 [Example 3002] | 0.1 to 100 | – |
| Cc1ccc(NC(=O)C(=O)N2CCCOc3ccc(cc3Cl)CNc3nc(nc(OCC(F)(F)F)n3)Nc3ccc(cc3)C(=O)NCC(C)(C)C2)cc1 [Example 3003] | 0.1 to 100 | – |
| CC1(C)CNC(=O)c2ccc(cc2)Nc2nc(nc(OCC(F)(F)F)n2)NCc2ccc(c(Cl)c2)OCCCN(C(=O)C(=O)N2CCOCC2)C1 [Example 3005] | 0.1 to 100 | – |
| CC1(C)CNC(=O)c2ccc(cc2)Nc2nc(nc(OCC(F)(F)F)n2)NCc2ccc(c(Cl)c2)OCCCN(C(=O)C(=O)Nc2nncs2)C1 [Example 3006] | 0.1 to 100 | – |
| CC1(C)CNC(=O)c2ccc(cc2)Nc2nc(nc(OCC(F)(F)F)n2)NCc2ccc(c(Cl)c2)OCCCN(C(=O)C(=O)Nc2cccc(F)c2)C1 [Example 3007] | 0.1 to 100 | – |
| CC1(C)CNC(=O)c2ccc(cc2)Nc2nc(nc(OCC(F)(F)F)n2)NCc2ccc(c(Cl)c2)OCCCN(C(=O)C(=O)Nc2ccc(F)cc2)C1 [Example 3008] | 0.1 to 100 | 2.42 |
| CC1(C)CNC(=O)c2ccc(cc2)Nc2nc(nc(OCC(F)(F)F)n2)NCc2ccc(c(Cl)c2)OCCCN(C(=O)C(=O)Nc2ccccc2)C1 [Example 3009] | 0.1 to 100 | – |
| CC1(C)CNC(=O)c2ccc(cc2)Nc2nc(nc(OCC(F)(F)F)n2)NCc2ccc(c(Cl)c2)OCCCN(C(=O)C(=O)Nc2cc(F)cc(F)c2)C1 [Example 3010] | 0.1 to 100 | – |
| CC1(C)CNC(=O)c2ccc(cc2)Nc2nc(nc(OCC(F)(F)F)n2)NCc2ccc(c(Cl)c2)OCCCN(C(=O)C(=O)NC2CCCCC2)C1 [Example 3012] | 0.1 to 100 | – |
| CC1(C)CNC(=O)c2ccc(cc2)Nc2nc(nc(OCC(F)(F)F)n2)NCc2ccc(c(Cl)c2)OCCCN(C(=O)C(=O)N2CCc3ccccc3C2)C1 [Example 3013] | 0.1 to 100 | – |
| CC(C)CNC(=O)C(=O)N1CCCOc2ccc(cc2Cl)CNc2nc(nc(OCC(F)(F)F)n2)Nc2ccc(cc2)C(=O)NCC(C)(C)C1 [Example 3014] | 0.1 to 100 | – |
| CNC(=O)C(=O)N1CCCOc2ccc(cc2Cl)CNc2nc(nc(OCC(F)(F)F)n2)Nc2ccc(cc2)C(=O)NCC(C)(C)C1 [Example 3015] | 0.1 to 100 | – |
| CCc1nnc(NC(=O)C(=O)N2CCCOc3ccc(cc3Cl)CNc3nc(nc(OCC(F)(F)F)n3)Nc3ccc(cc3)C(=O)NCC(C)(C)C2)s1 [Example 3016] | 0.1 to 100 | 24 |
| Cc1cc(NC(=O)C(=O)N2CCCOc3ccc(cc3Cl)CNc3nc(nc(OCC(F)(F)F)n3)Nc3ccc(cc3)C(=O)NCC(C)(C)C2)no1 [Example 3017] | 0.1 to 100 | – |
| CC1(C)CNC(=O)c2ccc(cc2)Nc2nc(nc(OCC(F)(F)F)n2)NCc2ccc(c(Cl)c2)OCCCN(C(=O)C(=O)N2CCCCC2)C1 [Example 3018] | 0.1 to 100 | – |
| CC1(C)CNC(=O)c2ccc(cc2)Nc2nc(nc(OCC(F)(F)F)n2)NCc2ccc(c(Cl)c2)OCCCN(C(=O)C(=O)Nc2nccs2)C1 [Example 3019] | 0.1 to 100 | – |
| Cc1nnc(NC(=O)C(=O)N2CCCOc3ccc(cc3Cl)CNc3nc(nc(OCC(F)(F)F)n3)Nc3ccc(cc3)C(=O)NCC(C)(C)C2)s1 [Example 3020] | 0.1 to 100 | – |
